According to article PMC9640990 (Frontiers in Pharmacology, 2022):
Where two headings read alike, the source gives them in different places.

Tests used:
[1] = Tissue distribution-based herb-drug interaction study in rats (CIP i.v., PCE i.g.); assay type: in vivo, Sprague-Dawley rats
hOAT1 = target: T1, hOAT1 (Homo sapiens, UniProt Q4U2R8); assay: Inhibition of hOAT1-mediated uptake of 14C-PAH in hOAT1-MDCK cells; assay type: cell-based
T1 construct: host or cells: MDCK
T1 sequence (Q4U2R8 1-563): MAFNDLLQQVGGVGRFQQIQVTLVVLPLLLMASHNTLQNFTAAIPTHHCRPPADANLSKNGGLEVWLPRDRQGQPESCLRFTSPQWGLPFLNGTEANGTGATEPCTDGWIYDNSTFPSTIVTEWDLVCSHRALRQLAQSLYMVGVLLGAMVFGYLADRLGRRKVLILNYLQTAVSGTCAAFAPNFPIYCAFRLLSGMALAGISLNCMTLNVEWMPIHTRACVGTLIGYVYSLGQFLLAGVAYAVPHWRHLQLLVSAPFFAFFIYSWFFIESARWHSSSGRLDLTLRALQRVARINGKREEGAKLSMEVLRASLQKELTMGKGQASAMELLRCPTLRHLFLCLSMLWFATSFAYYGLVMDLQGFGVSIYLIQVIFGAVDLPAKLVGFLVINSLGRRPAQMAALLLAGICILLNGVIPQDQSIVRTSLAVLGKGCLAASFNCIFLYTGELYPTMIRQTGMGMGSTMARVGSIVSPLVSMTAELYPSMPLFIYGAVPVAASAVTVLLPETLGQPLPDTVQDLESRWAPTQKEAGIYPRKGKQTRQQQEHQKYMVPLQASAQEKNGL
Protocol: (§1) Stably expressing cell lines of hOAT1-MDCK, hOAT3-MDCK, hOCT2-S2, hMDR1-MDCK, hBCRP-MDCK, and their mock cells were obtained from Japan Fuji Biomedical Co., Ltd. The cells were maintained in DMEM (Sigma) supplemented with 10% FCS, 1% non-essential amino acids (Sigma), and 2% L-glutamine. The medium for the Transwell® plates (Corning Costar, Cambridge, MA, United States) was supplemented with 0.1% gentamicin. Membrane filters were placed in a 12 mm well with 1.5 and 0.5 ml of culture medium in the basolateral and apical compartments, respectively. Cells were cultured at 37°C in an atmosphere of 5% CO2.
(§2) Briefly, the hOAT1-MDCK, hOAT3-MDCK, and hOCT2-S2 cells were trypsinized and suspended in the culture medium to provide a density of 1.5 × 10^5 cells/ml. […] After cultivation for 7 days, cells were washed twice and equilibrated for 30 min at 37°C with the pre-warmed HBSS buffer. […] The content of DMSO was below 1% and constant in all inhibition experiments. All experiments were performed in triplicate. The cell lysate and 3.0 ml of aquasol-2 scintillation fluid were put into a scintillation flask. […] IC50 values were determined by employing GraphPad Prism 9.

hBCRP = target: T2, hBCRP (Homo sapiens, UniProt Q9UNQ0); assay: hBCRP-mediated efflux of lucifer yellow in hBCRP-MDCK cells; assay type: cell-based; settings: for efflux of BCRP-mediated lucifer yellow: concentration range 0.3 to 30 µM; for inhibitory effect on BCRP activity: hBCRP-MDCK cells, co-incubation 0.3 to 30 µM
T2 construct: host or cells: MDCK
T2 sequence (Q9UNQ0 1-655): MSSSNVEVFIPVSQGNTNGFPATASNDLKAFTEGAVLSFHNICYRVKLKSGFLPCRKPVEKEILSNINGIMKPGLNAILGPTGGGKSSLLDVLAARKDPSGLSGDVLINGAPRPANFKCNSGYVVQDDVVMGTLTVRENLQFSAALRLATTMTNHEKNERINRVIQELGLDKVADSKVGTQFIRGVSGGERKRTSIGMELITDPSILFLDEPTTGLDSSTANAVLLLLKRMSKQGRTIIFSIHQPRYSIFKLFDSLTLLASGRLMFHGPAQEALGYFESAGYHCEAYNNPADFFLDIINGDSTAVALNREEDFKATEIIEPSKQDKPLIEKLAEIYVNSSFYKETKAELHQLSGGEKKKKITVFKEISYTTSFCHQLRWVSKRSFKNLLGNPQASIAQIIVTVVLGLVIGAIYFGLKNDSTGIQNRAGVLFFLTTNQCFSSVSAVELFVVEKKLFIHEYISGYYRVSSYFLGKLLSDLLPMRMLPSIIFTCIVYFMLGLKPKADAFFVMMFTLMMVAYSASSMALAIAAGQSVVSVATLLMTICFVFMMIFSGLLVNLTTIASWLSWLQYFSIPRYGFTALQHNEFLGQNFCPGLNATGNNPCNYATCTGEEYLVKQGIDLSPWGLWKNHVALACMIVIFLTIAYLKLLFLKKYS
Protocol: as §1, §2

in vivo = settings: male, Sprague-Dawley, rat, po, 0.72 g/kg; for Cmax: C max; for Vd/F: V z/F; for k el: k e; for half-life: t 1/2, plasma PK-marker; for Tmax: t max, median (range)
clinical = settings: male, human; for Cmax: C max; for Vd/F: V z/F; for k el: k e
[2] = plasma, plasma PK-marker, rats, intragastric PCE 0.72 g/kg + CIP […]
[3] = plasma, plasma PK-marker, rats, intragastric PCE 0.72 g/kg alone
[4] = plasma, oral, plasma PK-marker, human subjects, multiple doses of PCE (8 g, TID, seven days) + CIP 0.5 g
[5] = plasma, oral, plasma PK-marker, human subjects, single dose of PCE (8 g) + CIP 0.5 g
[6] = plasma, po, plasma PK-marker, human subjects, oral single dose of PCE (8 g) alone

SMILES: O=C(O)c1ccc(O)c(O)c1 [PCA, protocatechuic acid]
- order of both AUC 0-t and C max in tissues ([1]; CIP + PCE group): prostate > SVG > kidney > testis > plasma
- order of both AUC 0-t and C max in tissues ([1]; PCE group): SVG > kidney > prostate > testis > spleen
- change of K p by CIP ([1]; each tissue, p > 0.05): did not significantly alter
- change of AUC 0-t by CIP ([1]; kidney, p < 0.05): decreased
- change of C max by CIP ([1]; prostate, p < 0.05): significantly increased
- IC50 (hOAT1; hOAT1-MDCK cells, 14C-PAH 5 µM): 29.7 µM
- efflux of BCRP-mediated lucifer yellow (hBCRP): concentration-dependent increase
- inhibitory effect on BCRP activity (hBCRP): no inhibitory effect
- CL/F (plasma PK-marker, rats, intragastric PCE 0.72 g/kg + CIP […]): 6.67 ± 1.54 L/h
- CL/F (plasma PK-marker, rats, intragastric PCE 0.72 g/kg alone): 6.72 ± 2.19 L/h
- AUC(0-t) (in vivo; [2]): 6.37 ± 1.18 ng·h/mL
- AUC(0-t) (in vivo; [3]): 6.72 ± 2.39 ng·h/mL
- AUC(0-inf) (in vivo; [2]): 7.04 ± 1.55 ng·h/mL
- AUC(0-inf) (in vivo; [3]): 7.32 ± 2.39 ng·h/mL
- Cmax (in vivo; [2]): 6.69 ± 1.87 ng/mL
- Cmax (in vivo; [3]): 5.08 ± 1.82 ng/mL
- Vd/F (in vivo; [2]): 6.87 ± 2.54 L
- Vd/F (in vivo; [3]): 6.5 ± 3.16 L
- k el (in vivo; [2]): 0.000306 s⁻¹
- k el (in vivo; [3]): 0.000308 s⁻¹
- half-life (in vivo; plasma, rats, intragastric PCE 0.72 g/kg + CIP […]): 45.6 ± 25.8 min
- half-life (in vivo; plasma, rats, intragastric PCE 0.72 g/kg alone): 40.8 ± 12.6 min
- Tmax (in vivo; [2]): 30 min
- Tmax (in vivo; [3]): 30 min
- AUC(0-t) (clinical; [4]): 3.03 ± 0.9 ng·h/mL
- AUC(0-t) (clinical; [5]): 3.68 ± 1.15 ng·h/mL
- AUC(0-inf) (clinical; [4]): 3.35 ± 0.99 ng·h/mL
- AUC(0-inf) (clinical; [5]): 4.4 ± 0.93 ng·h/mL
- Cmax (clinical; [4]): 5.88 ± 1.66 ng/mL
- Cmax (clinical; [5]): 6.44 ± 2.57 ng/mL
- Vd/F (clinical; [4]): 150 ± 54.4 L
- Vd/F (clinical; [5]): 149 ± 65.6 L
- k el (clinical; [4]): 0.000697 s⁻¹
- k el (clinical; [5]): 0.000569 s⁻¹
- half-life (clinical; plasma, oral, t 1/2, plasma PK-marker, human subjects, multiple doses of PCE (8 g, TID, seven days) + CIP 0.5 g): 18.6 ± 8.4 min
- half-life (clinical; plasma, oral, t 1/2, plasma PK-marker, human subjects, single dose of PCE (8 g) + CIP 0.5 g): 25.2 ± 11.4 min
- Tmax (clinical; plasma, po): 19.8 min
- AUC(0-t) (clinical; [6]): 2.84 ± 0.72 ng·h/mL
- AUC(0-inf) (clinical; [6]): 3.39 ± 0.94 ng·h/mL
- Vd/F (clinical; [6]): 148 ± 23.9 L
- k el (clinical; [6]): 0.000656 s⁻¹
- half-life (clinical; plasma, po, t 1/2, plasma PK-marker, human subjects, oral single dose of PCE (8 g) alone): 19.2 ± 6.6 min

SMILES: O=C(O)c1cc(O)c(O)c(O)c1 [GA, Gallic acid]
- order of C max in tissues ([1]; CIP + PCE group (PK-marker)): SVG > prostate > kidney > lung > plasma
- order of C max in tissues ([1]; PCE group): SVG > prostate > kidney > plasma > testis
- order of AUC 0-t in tissues ([1]; intragastric PCE in the absence and presence of CIP): SVG > prostate > kidney > testis > plasma
- change of C max by CIP ([1]; kidney and heart, p < 0.05): decreased
- IC50 (hOAT1): 8.01 µM
- efflux of BCRP-mediated lucifer yellow (hBCRP): concentration-dependent increase
- inhibitory effect on BCRP activity (hBCRP): no inhibitory effect
- t 1/2 (male, Sprague-Dawley, rat, in vivo, po, 0.72 g/kg): 157 ± 107 min
- CL/F (rat, in vivo, po, 0.72 g/kg): 2.06 ± 0.85 L/h
- AUC(0-t) (in vivo; in vivo): 465 ± 171 ng·h/mL
- AUC(0-inf) (in vivo; in vivo): 483 ± 169 ng·h/mL
- Cmax (in vivo; in vivo): 134 ± 36.4 ng/mL
- Vd/F (in vivo; in vivo): 8.93 ± 9.83 L
- Tmax (in vivo; in vivo, plasma PK-marker, rats, intragastric PCE 0.72 g/kg alone): 90 min
- k el (in vivo; [2]): 0.000122 s⁻¹
- k el (in vivo; [3]): 9.72e-05 s⁻¹
- Tmax (clinical; in vivo, po): 52.8 min
- AUC(0-t) (clinical; in vivo, po): 242 ± 70 ng·h/mL
- AUC(0-inf) (clinical; in vivo, po): 248 ± 67 ng·h/mL
- Cmax (clinical; in vivo, po): 130 ± 32.7 ng/mL
- Vd/F (clinical; in vivo, po): 322 ± 295 L
- half-life (clinical; in vivo, po, t 1/2): 98.4 ± 55.2 min
- k el (clinical; [4]): 0.000117 s⁻¹
- k el (clinical; [5]): 0.000131 s⁻¹
- k el (clinical; [6]): 0.000142 s⁻¹
